By inhibition is commonly meant the drop in the measured response relative to a control, in per cent. A high value points to a response far below the control. As usually defined, the Ki is the equilibrium dissociation constant of an inhibitor or competing ligand from its target. Low values mean higher affinity, high ones lower affinity. What is called EC50 is the concentration at which the effect is half-maximal.

Read-outs that look alike come from different tables or passages of the source.

One data set deals with CB1 receptor. Particulars: cited from earlier work.
The subject of the next data set is CB2 receptor. Particulars: cited from earlier work.
The target of the next data set is T1, 5-HT2C (Homo sapiens, UniProt P28335).
T1 sequence (P28335 33-458): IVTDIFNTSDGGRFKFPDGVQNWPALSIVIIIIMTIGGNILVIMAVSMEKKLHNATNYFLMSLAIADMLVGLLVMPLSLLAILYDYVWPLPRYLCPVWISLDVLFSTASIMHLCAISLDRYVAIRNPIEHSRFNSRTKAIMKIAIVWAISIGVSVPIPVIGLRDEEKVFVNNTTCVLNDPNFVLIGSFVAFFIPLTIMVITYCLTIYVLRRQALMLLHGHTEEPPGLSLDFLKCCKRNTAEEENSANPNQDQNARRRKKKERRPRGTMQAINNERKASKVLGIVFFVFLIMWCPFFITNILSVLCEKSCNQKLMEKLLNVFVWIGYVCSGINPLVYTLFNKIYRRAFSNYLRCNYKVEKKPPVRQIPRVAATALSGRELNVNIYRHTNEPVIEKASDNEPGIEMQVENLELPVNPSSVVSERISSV
Nature of the data set: PDSP receptor profiling. In kind it is binding.

The target of a further data set is MOR (Homo sapiens, UniProt P35372). Nature of the data set: PDSP receptor profiling. The format is binding.
Sequence of MOR (P35372 whole entry): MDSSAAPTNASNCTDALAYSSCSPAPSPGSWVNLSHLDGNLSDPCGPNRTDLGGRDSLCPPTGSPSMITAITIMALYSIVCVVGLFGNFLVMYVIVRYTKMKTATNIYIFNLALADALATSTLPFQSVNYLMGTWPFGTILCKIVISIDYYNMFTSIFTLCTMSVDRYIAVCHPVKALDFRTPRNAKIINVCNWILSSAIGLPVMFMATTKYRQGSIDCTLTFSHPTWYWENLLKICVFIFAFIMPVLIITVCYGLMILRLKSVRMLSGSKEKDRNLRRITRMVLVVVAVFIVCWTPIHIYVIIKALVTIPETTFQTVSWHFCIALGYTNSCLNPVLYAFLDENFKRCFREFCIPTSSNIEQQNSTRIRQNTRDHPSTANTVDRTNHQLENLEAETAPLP
In the next data set the target is KOR (Homo sapiens, UniProt P41145). Nature of the data set: PDSP receptor profiling. The format is binding.
Sequence of KOR (P41145 whole entry): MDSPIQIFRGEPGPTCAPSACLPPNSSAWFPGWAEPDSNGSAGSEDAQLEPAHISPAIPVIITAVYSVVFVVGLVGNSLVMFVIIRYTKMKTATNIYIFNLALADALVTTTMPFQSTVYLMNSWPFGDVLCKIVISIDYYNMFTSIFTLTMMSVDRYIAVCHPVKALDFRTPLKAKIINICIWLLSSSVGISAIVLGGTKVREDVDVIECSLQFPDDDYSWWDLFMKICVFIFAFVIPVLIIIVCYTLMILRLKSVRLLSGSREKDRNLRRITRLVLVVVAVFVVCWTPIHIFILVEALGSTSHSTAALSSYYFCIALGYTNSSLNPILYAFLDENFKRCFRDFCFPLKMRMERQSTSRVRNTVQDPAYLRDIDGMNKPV
In another data set the target is D1 (Homo sapiens, UniProt P21728). Nature of the data set: PDSP receptor profiling. In kind it is binding.
Sequence of D1 (P21728 whole entry): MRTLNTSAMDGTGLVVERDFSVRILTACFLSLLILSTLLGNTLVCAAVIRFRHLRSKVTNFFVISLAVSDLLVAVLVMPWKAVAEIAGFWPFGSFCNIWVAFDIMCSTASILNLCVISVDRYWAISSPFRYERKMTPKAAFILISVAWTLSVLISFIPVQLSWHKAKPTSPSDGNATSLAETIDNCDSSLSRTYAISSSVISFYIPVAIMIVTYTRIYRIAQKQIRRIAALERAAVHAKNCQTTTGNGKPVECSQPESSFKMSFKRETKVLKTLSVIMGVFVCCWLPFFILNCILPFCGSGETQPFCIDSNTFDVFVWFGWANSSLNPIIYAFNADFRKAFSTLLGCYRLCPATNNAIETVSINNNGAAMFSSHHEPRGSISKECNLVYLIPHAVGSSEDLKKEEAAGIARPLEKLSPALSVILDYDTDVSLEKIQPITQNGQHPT
The next data set concerns the target H3 (Homo sapiens, UniProt Q9Y5N1). Nature of the data set: PDSP receptor profiling. In kind it is binding.
The target in a further data set is T2, ɑ2b (Homo sapiens, UniProt P18089).
T2 sequence (P18089 1-450): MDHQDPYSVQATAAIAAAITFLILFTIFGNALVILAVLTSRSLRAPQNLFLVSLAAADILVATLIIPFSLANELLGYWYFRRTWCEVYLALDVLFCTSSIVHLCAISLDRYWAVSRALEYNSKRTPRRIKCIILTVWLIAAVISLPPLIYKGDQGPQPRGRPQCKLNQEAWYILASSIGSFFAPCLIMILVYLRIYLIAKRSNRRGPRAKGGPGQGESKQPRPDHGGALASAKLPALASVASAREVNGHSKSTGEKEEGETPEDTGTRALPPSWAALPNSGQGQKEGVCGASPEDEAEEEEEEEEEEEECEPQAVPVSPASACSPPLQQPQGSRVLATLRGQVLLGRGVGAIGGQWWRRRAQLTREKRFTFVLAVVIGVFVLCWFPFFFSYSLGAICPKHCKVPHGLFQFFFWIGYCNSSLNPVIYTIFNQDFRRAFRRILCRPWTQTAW
As to the kind of experiment: PDSP receptor profiling. The format is binding.

The next data set concerns the target T3, σ2 (Rattus norvegicus, UniProt Q5U3Y7).
T3 sequence (Q5U3Y7 1-176): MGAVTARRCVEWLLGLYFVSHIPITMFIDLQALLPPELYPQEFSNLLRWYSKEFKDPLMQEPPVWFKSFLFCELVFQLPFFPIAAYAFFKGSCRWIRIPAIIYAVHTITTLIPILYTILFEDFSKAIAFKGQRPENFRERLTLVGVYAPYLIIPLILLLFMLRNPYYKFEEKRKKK
Nature of the data set: PDSP receptor profiling. In kind it is binding.

For a further data set, the target named is T4, ɑ2C (Homo sapiens, UniProt P18825).
T4 sequence (P18825 1-462): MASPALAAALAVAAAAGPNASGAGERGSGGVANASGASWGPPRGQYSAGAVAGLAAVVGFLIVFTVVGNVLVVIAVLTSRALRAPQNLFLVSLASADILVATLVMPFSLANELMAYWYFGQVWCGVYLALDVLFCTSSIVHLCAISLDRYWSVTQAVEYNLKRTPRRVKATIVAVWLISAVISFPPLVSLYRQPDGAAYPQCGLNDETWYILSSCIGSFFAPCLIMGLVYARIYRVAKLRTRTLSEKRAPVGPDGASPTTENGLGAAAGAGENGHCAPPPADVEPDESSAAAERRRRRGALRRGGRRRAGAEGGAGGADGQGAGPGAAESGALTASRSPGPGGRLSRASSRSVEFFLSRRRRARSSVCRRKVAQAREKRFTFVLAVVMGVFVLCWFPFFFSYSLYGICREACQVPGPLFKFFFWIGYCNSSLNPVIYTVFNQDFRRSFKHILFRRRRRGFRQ
As to the kind of experiment: PDSP receptor profiling. The format is binding.

The target of another data set is DOR (Homo sapiens, UniProt P41143). Nature of the data set: PDSP receptor profiling. The format is binding.
Sequence of DOR (P41143 whole entry): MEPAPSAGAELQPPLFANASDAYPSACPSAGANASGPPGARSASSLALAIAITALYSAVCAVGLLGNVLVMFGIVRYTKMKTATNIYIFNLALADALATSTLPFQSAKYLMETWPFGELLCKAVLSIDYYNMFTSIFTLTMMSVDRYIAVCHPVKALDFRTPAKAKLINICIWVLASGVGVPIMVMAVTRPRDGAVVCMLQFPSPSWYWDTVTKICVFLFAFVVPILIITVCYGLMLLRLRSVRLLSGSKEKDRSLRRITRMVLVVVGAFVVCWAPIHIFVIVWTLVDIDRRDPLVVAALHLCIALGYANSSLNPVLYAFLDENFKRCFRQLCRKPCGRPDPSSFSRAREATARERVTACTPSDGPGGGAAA
For the next data set, the target named is AmpC β-lactamase (Escherichia coli, UniProt P00811). Nature of the data set: AmpC colloidal aggregation counter screen. In kind it is biochemical. Particulars: low micromolar concentrations; with/without detergent. For orientation: The purpose of a counterscreen is to sort out artefacts and off-target activity.
Sequence of AmpC β-lactamase (P00811 20-377): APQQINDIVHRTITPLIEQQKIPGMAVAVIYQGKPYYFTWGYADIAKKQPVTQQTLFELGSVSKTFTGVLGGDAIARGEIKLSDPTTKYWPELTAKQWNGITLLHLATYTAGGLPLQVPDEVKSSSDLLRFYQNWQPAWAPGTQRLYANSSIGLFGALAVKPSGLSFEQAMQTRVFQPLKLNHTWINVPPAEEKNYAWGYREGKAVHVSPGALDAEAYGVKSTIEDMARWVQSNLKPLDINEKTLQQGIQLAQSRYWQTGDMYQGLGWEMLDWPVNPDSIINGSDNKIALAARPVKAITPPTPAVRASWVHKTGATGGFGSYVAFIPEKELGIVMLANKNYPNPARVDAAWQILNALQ
Data set [1] has as its system malate dehydrogenase (MDH). Nature of the data set: MDH orthogonal aggregation counter screen. The format is biochemical. Particulars: 33 or 100 μM; presence or absence of 0.01% Triton X-100.
Data set [2] can be described thus: Colloidal aggregate detection by dynamic light scattering. In kind it is physicochemical. Conditions: critical aggregation concentration can vary several-fold with conditions.
For data set [3] the following is noted: cited from earlier work.
A further data set concerns ion channels. Particulars: membrane pressure and direct binding; cited from earlier work.
For data set [4] the following is noted: cited from earlier work; for apparent plasma clearance (CL'): oromucosal spray.
The conditions of data set [5]: room temperature; air oxidation to cannabidiol hydroxyquinone; cited from earlier work.
Another data set has as its target 5-HT1A receptor. Conditions: displacement of agonist [3H]-8-OH-DPAT; cited from earlier work.
A further data set deals with mice. Particulars: oral single 246–2460 mg/kg or 61.5–615 mg/kg for 10 days; cited from earlier work.
The conditions of data set [6]: patients with schizophrenia, 800 mg/day, not placebo-controlled; cited from earlier work.

Sequence of H3 (Q9Y5N1 whole entry): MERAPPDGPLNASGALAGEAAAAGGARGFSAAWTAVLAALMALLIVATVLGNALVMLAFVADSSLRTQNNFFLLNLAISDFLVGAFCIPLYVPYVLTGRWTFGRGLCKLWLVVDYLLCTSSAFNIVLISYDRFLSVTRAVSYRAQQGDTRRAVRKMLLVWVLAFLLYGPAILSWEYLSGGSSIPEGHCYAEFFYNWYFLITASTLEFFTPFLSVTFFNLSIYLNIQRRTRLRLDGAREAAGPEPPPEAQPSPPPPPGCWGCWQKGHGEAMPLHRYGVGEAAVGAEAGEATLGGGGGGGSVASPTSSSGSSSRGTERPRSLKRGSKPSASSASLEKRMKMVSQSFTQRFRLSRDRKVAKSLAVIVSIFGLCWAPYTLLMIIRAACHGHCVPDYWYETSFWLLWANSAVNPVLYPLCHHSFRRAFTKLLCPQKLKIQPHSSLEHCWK

In the case of `C=C(C)[C@H]1CCC(C)=C[C@@H]1c1c(O)cc(CCCCC)cc1O` [(+)-CBD], in the data set with CB1 receptor, the CB1 receptor affinity entry is listed as “below 1 μM”. For the same molecule, the CB2 receptor affinity result in the data set with CB2 receptor is on record as “below 1 μM”.

On to `C=C(C)[C@@H]1CCC(C)=C[C@H]1c1c(O)cc(CCCCC)cc1O` [CBD, Cannabidiol], for which the inhibition at 10 µM at 5-HT2C, against MOR, against KOR, against D1, against H3 and at ɑ2b was above 50% each time. The inhibition at 10 µM at σ2, at ɑ2C and against DOR was above 50% throughout. On σ2, this molecule returned a Ki above 1 µM. Further, on AmpC β-lactamase, the “inhibition of AmpC β-lactamase” value was “detergent-sensitive inhibition”. In addition, in data set [1], the “inhibition of malate dehydrogenase (MDH)” value is given as “detergent-sensitive inhibition”. Moreover, in [2], the “concentration at which detectable colloidal aggregates form (DLS)” value was “approximately 12.5 μM”. Also, in data set [3], the “concentration at which CBD promotes DDI and potentiates the action of many drugs” value is 5 to 10 µM. Moreover, the “concentration at which CBD promiscuously affects ion channels” value with ion channels was 0.1 to 5 µM. The plasma concentration in data set [4] (humans, single dose of an oral preparation containing 100 mg of CBD) is 36 ng/mL and approximately 100 nM. Also, in data set [4] (oromucosal spray formulations), the volume of distribution is 26,000–31,000 L. The entries for the “apparent plasma clearance (CL')” value in data set [4] (doses 5–20 mg) and in data set [4] (fed state) were 2,500–4,700 L/h and 533 L/h, respectively. Further, the chemical stability result in data set [5] is “chemically unstable”. Also, the EC50 on 5-HT1A receptor was 8 to 16 µM. Besides, the “number of genes altered in gene expression arrays” value in the data set on mice was above 50 genes. Moreover, the “change in PANSS scores” value in [6] is “clinically-significant reduction”.

`CCCCCc1cc(O)c([C@@H]2C=C(C)CC[C@H]2C(C)C)c(O)c1` [H2-CBD]: the “affinity for the CB1 receptor” value in the data set with CB1 receptor is given as “moderate affinity”.
